# Measurements taken from patent US20120204273A1, “COMPOSITIONS RELATING TO A PHOSPHOPROTEIN AND METHODS OF USE” (SANFORD-BURNHAM MEDICAL RESEARCH INSTITUTE, priority 2010, published 2012).
# B1: HA-CDP138-5DA: HA-tagged CDP138 with D19A, D26A, D76A, D78A, D84A (protein, UniProt Q86YS7 1-1000, looked up, variant D19A D26A D76A D78A D84A)
# C2 domain-containing protein 5: MPGKLKVKIVAGRHLPVMARASDLTAAFVEVKFGNTTFKTDVYLKSLNPQWNSEWFKFEVDDEDLQDEPLQITVLAHATYSANAAIGKVYIDIDPLLYSEAATVISGWFPIYDTIHGIRGEINVVVKVDLFNDLNRFRQSSCGVKFFCTTSIPKCYRAVIIHGFVEELVVNEDPEYQWIDRIRTPRASNEARQRLISLMSGELQRKIGLKVLEMRGNAVVGYLQCFDLEGESGLVVRAIGTACTLDKLSSPAAFLPACNSPSKEMKEIPFNEDPNPNTHSSGPSTPLKNQTYSFSPSKSYSRQSSSSDTDLSLTPKTGMGSGSAGKEGGPFKALLRQQTQSALEQREFPFFTLTAFPPGFLVHVGGVVSARSVKLLDRIHNPDEPETRDAWWAEIRQEIKSHAKALGCHAVVGYSESTSICEEVCILSASGTAAVLNPRFLQDGTVEGCLEQRLEENLPTRCGFCHIPYDELNMPFPAHLTYCYNCRKQKVPDVLFTTIDLPTDATVIGKGCLIQARLCRLKKKAQAEANATAISNLLPFMEYEVHTQLMNKLKLKGMNALFGLRIQITVGENMLMGLASATGVYLAALPTPGGIQIAGKTPNDGSYEQHISHMQKKINDTIAKNKELYEINPPEISEEIIGSPIPEPRQRSRLLRSQSESSDEVTELDLSHGKKDAFVLEIDDTDAMEDVHSLLTDVPPPSGFYSCNTEIMPGINNWTSEIQMFTSVRVIRLSSLNLTNQALNKNFNDLCENLLKSLYFKLRSMIPCCLCHVNFTVSLPEDELIQVTVTAVAITFDKNQALQTTKTPVEKSLQRASTDNEELLQFPLELCSDSLPSHPFPPAKAMTVEKASPVGDGNFRNRSAPPCANSTVGVVKMTPLSFIPGAKITKYLGIINMFFIRETTSLREEGGVSGFLHAFIAEVFAMVRAHVAALGGNAVVSYIMKQCVFMENPNKNQAQCLINVSGDAVVFVRESDLEVVSSQQPTTNCQSSCTEGEVTT
# modifications: HA tag
# notes: HA-tagged CDP138 with D19A, D26A, D76A, D78A, D84A
# B2: HA-CDP138-S197A: HA-tagged CDP138 mutant lacking the Akt2 phosphorylation site Ser197 (protein, UniProt Q86YS7 1-1000, looked up, variant S197A)
# C2 domain-containing protein 5: MPGKLKVKIVAGRHLPVMDRASDLTDAFVEVKFGNTTFKTDVYLKSLNPQWNSEWFKFEVDDEDLQDEPLQITVLDHDTYSANDAIGKVYIDIDPLLYSEAATVISGWFPIYDTIHGIRGEINVVVKVDLFNDLNRFRQSSCGVKFFCTTSIPKCYRAVIIHGFVEELVVNEDPEYQWIDRIRTPRASNEARQRLIALMSGELQRKIGLKVLEMRGNAVVGYLQCFDLEGESGLVVRAIGTACTLDKLSSPAAFLPACNSPSKEMKEIPFNEDPNPNTHSSGPSTPLKNQTYSFSPSKSYSRQSSSSDTDLSLTPKTGMGSGSAGKEGGPFKALLRQQTQSALEQREFPFFTLTAFPPGFLVHVGGVVSARSVKLLDRIHNPDEPETRDAWWAEIRQEIKSHAKALGCHAVVGYSESTSICEEVCILSASGTAAVLNPRFLQDGTVEGCLEQRLEENLPTRCGFCHIPYDELNMPFPAHLTYCYNCRKQKVPDVLFTTIDLPTDATVIGKGCLIQARLCRLKKKAQAEANATAISNLLPFMEYEVHTQLMNKLKLKGMNALFGLRIQITVGENMLMGLASATGVYLAALPTPGGIQIAGKTPNDGSYEQHISHMQKKINDTIAKNKELYEINPPEISEEIIGSPIPEPRQRSRLLRSQSESSDEVTELDLSHGKKDAFVLEIDDTDAMEDVHSLLTDVPPPSGFYSCNTEIMPGINNWTSEIQMFTSVRVIRLSSLNLTNQALNKNFNDLCENLLKSLYFKLRSMIPCCLCHVNFTVSLPEDELIQVTVTAVAITFDKNQALQTTKTPVEKSLQRASTDNEELLQFPLELCSDSLPSHPFPPAKAMTVEKASPVGDGNFRNRSAPPCANSTVGVVKMTPLSFIPGAKITKYLGIINMFFIRETTSLREEGGVSGFLHAFIAEVFAMVRAHVAALGGNAVVSYIMKQCVFMENPNKNQAQCLINVSGDAVVFVRESDLEVVSSQQPTTNCQSSCTEGEVTT
# modifications: HA tag
# notes: HA-tagged CDP138 mutant lacking the Akt2 phosphorylation site Ser197
# Assays:
# [1] = test system: 3T3-L1 adipocytes; assay: myc-GLUT4-GFP translocation to the cell surface; type: cell-based, mouse; conditions: for effect on insulin-stimulated myc-GLUT4-GFP translocation to cell surface: fixed cells, Akti1/2 50 μM for 1 hr, insulin 100 nM 30 min; for effect of overexpression on insulin-stimulated myc-GLUT4-GFP translocation (TIRF myc / Epi GFP): insulin 100 nM, 30 min
# Method: FIG. 2, panels A-C show knockdown of CDP138 in 3T3-L1 adipocytes inhibits insulin-stimulated glucose transport (A) and myc-GLUT4-GFP translocation (B), but not endogenous GLUT4 movement to the periphery detected in TIRF zone (C). (A): Differentiated adipocytes at day 5 were transfected with siRNAs against mouse 5730419I09Rik or the scrambled siRNA (Scr) as described earlier (Jiang et al., 2003) for 60 hrs, then serum starved overnight. Cells were then treated with or without insulin (1 nM and 100 nM) for 30 min for the glucose uptake assay, or 15 min for immunoblotting of CDP138, pAkt, Akt and β-actin. Glucose transport data are presented as mean±SD of 4 independent experiments. *P<0.05 vs Scr Insulin (1 nM) group; **P<0.01 vs Scr Insulin (100 nM) group. (B): Day 5 adipocytes were transfected with siRNAs and myc-GLUT4-GFP for 60 hrs and then serum starved overnight. Cells were then treated with insulin (1 nM) for 20 min. Cell surface Myc-GLUT4-GFP was detected with anti-myc monoclonal Ab (9E10) and Alexa Fluor 568-labeled goat anti-mouse IgG in non-permeablized cells. The Myc signal and GFP signal were quantified as previously described (Jiang et al., 2002). Data presented are representative microscopic images and mean±SD of about 160 GFP-positive cells in each group from three independent experiments. **P<0.01 vs Scr Insulin (1 nM) group. […] GLUT4 was detected with a goat anti-GLUT4 Ab and Alexa Fluor 488-conjugated donkey anti-goat Ab in permeabilized cells. Top and middle panels show 100 nm TIRF zone and representative GLUT4 TIRFM images, respectively. Data are mean±SD of 3 independent experiments. **P<0.01 vs Scr Insulin groups.
# GLUT4 translocation detection with wide field fluorescence and TIRF microscopy: Both wide field and TIRF microscopy were used to detect myc-GLUT4-GFP translocation to the cell surface as previously described (Jiang et al., 2002) and herein.
# To test the effect of RNAi-induced gene specific knockdown of CDP138 or overexpression of CDP138 mutants on GLUT4 translocation, siRNAs or CDP138 constructs were transfected into adipocytes together with myc-GLUT4-GFP by electroporation as previously described (Jiang et al, 2003). […] Cells were washed with cold PBS, fixed with 4% formaldehyde and immunostained. Briefly, for siRNA study, the cell surface Myc-GLUT4-GFP was visualized with mouse anti-Myc Ab (9E10) and AlexaFluoro568-labeled goat anti-mouse secondary Ab (Invitrogen) in PBS containing 1% FBS. After washing, the coverslip were mounted with Prolong antifade reagent (Invitrogen, Eugene Oreg.). Fluorescence microscopy was carried as described below. Then, images were acquired with wide field microscopy as described below. For the study with overexpressed HAtagged CDP138 constructs, the cell surface Myc-GLUT4-GFP was visualized with rabbit anti-Myc Ab (Cell signaling, Inc) and AlexaFluoro568-labeled goat anti-rabbit secondary Ab (InVitrogen) in PBS containing 1% FBS. Cells were further permeabilized with PSB containing 0.5% Tween-20, and HA-tagged protein was detected with a mouse anti-HA epitope primary Ab followed by AlexaFluoro-350-labelled goat anti-mouse IgG. Insulin-induced myc-GLUT4 accumulation (AlexaFluoro-568 signal) within the evanescence excitation field (100 nm from dorsal membrane) in transfected adipocytes was measured with a Nikon Eclipse-Ti microscope equipped with a CoolSNAP HQ2 camera and laser scanning TIRF capacity. Total GLUT4-GFP signals and […] Alexa Fluoro-350 signals were acquired with wide field imaging to identify double-transfected cells. The ratio of myc-GLUT4 signal in the TIRF zone to the total Epi-GFP signal in wide field was used as a measure of GLUT4 translocation to the cell surface.
# (§1) Image Analysis and Quantification: TIRF and wide field fluorescence microscopy were performed using a Nikon inverted microscope (Melville, N.Y.) with a cooled charge-coupled device camera. […]
# [2] = test system: 3T3-L1 adipocytes; assay: GSV-PM fusion in live adipocytes (IRAP-pHluorin, TIRF microscopy); type: cell-based, mouse; conditions: Akti1/2 5 μM for 1 h, insulin 100 nM 30 min
# Description: FIG. 3, panels A-C, show knockdown of CDP138 in live 3T3-L1 adipocytes inhibits insulin-stimulated membrane fusion between GLUT4 storage vesicles (GSV) and the PM, but not GLUT4-EGFP trafficking to the TIRF zone. (A): Schematic illustration of the molecular probes and TIRF microcopy-based live cell assays for GLUT4 trafficking and GSV-PM fusion. (B) and (C): The effect of CDP138 knockdown on insulin-stimulated IRAP-pHluorin insertion into the PM (B), and accumulation of GLUT4-EGFP in the TIRF zone (C). Adipocytes (day 4) were transfected by electroporation with plasmid DNA encoding IRAP-pHluorin or GLUT4-EGFP, together with either the scrambled siRNA or smartPool siRNA against mouse 5730419I09Rik. Cells were reseeded on glass-bottomed dishes for 72 hrs, serum starved for 2 hr then stimulated with 100 nM insulin for 30 min. Analyses were performed in a cell warmer adapted for a Nikon TiE with fully motorized combined dual laser (488 and 561 nm). Images were acquired every 3 min immediately after addition of insulin and analyzed as described in the Supplementary Experimental Procedures. Perfect focus system and multiple points capture program (NIS Element) were used to acquire images from multiple positively transfected cells at each time point. […]
# Total Internal Reflection Fluorescence (TIRF) Microscopy: Nikon (Melville, N.Y.) TI-TIRF-E, which was based on the objective lens method, was used to perform all the TIRF experiments. […] Positively transfected adipocytes were identified, and the insulin-stimulated IRAP vesicle-PM fusion events or GLUT4-EGFP trafficking to the TIRF zone were recorded every 3 min for a 30 min period using Nikon Eclipse-Ti TIRF microscope. […]
# as §1
Molecule,effect on insulin-stimulated myc-GLUT4-GFP translocation to cell surface [1],effect on insulin-stimulated myc-GLUT4-GFP translocation to cell surface ([1]; listed as Akti1/2),effect on insulin-induced GSV-PM membrane fusion [2],effect on insulin-induced GSV-PM membrane fusion ([2]; listed as Akti1/2),effect of overexpression on insulin-stimulated myc-GLUT4-GFP translocation (TIRF myc / Epi GFP) [1],effect of overexpression on insulin-stimulated myc-GLUT4-GFP translocation (TIRF myc / Epi GFP) ([1]; listed as S197A)
"O=c1[nH]c2ccccc2n1C1CCN(Cc2ccc(-c3nc4cc5nc[nH]c5cc4nc3-c3ccccc3)cc2)CC1 [Akti, reference compound]",significantly inhibited,blocks,significantly inhibited,blocks,,
B1,,,,,inhibited,
B2,,,,,inhibited,blocked
